A word on the inhibition: it is how much of the control response was suppressed.

Series [1] is described as follows: Franz cell percutaneous absorption analysis. It is filed as in vitro ADME, human. Particulars: from 1.0% 4-EB lotion; 24 hour period. Here is the method: This lotion was then tested by Franz cell percutaneous absorption analysis to determine how much 4-EB could penetrate human skin over a 24 hour period. The lotion formulation above provided a flux rate of 4-EB through human skin of 30-50 micrograms/hour.

For series [2], the system named is IL-1 induction of PGE-2. In words: IL-1 induced PGE-2 in human skin fibroblasts (ELISA). It is filed as cell-based. The settings on record: for IL-1 induction of PGE-2 blocked: Example 2 dose-response (FIG. 3); for inhibition at 100 µM: Example 3 (FIG. 4A); for inhibition at 50 µM: Example 3 (FIG. 4A/4B). As to the method: For this experiment, human skin fibroblasts were seeded into 12 well culture dishes, at a density of 80,000 cells/well in tissue culture medium and left overnight to attach to the dish. The next day, medium was removed and replaced with fresh medium containing either 1% ethanol as a diluent control, IL-1 at a concentration of 500 picograms/ml, or IL-1 plus 4-EB at either 250 μM or 500 μM. Cells were incubated for an additional 24 hours and at this time, the medium was removed and assayed by ELISA for the presence of PGE-2 the culture medium.
Subsequent studies were carried out to determine the dose-response of human skin fibroblasts to 4-EB. […] The results of the study are provided graphically in FIG. 3.
(§1) For this experiment, human skin fibroblasts were seeded into 12 well culture dishes at a density of 80,000 cells/well in tissue culture medium and left overnight to attach to the dish. The next day, medium was removed and replaced with fresh medium containing either 1% ethanol as a diluent control, IL-1 at a concentration of 500 picograms/ml, or IL-1 plus one of the compounds under investigation at a concentration of 1, 10, 50 or 100 μM. Cells were incubated for an additional 24 hours and at this time, the medium was removed and assayed by ELISA for the presence of PGE-2 in the culture medium.
A general note: ELISA stands for enzyme-linked immunosorbent assay.

Series [3] deals with TPA-induced PGE2 expression in keratinocytes. In words: TPA induced PGE-2 in human skin keratinocytes (ELISA). The settings on record: Keratinocyte, Example 4 (FIG. 5), TPA 32 nM, read-out: percent inhibition of TPA induced PGE-2. It is filed as cell-based. As to the method: as §1
Similar in vitro studies as those described in Example 3 were run using human skin keratinocytes. The experimental set up was the same as described for Example 3 but replacing IL-1 with tetradecanoyl phorbol acetate (TPA) at a concentration of 32 nM as the agonist. The compounds tested were 2-ethoxybenzaldehyde (2-EB) and 3-ethoxybenzaldehyde (3-EB) and 4-ethoxybenzaldehyde (4-EB) in concentrations of either 10, 50, or 100 μM.

The mark [4] stands for this setting: Homo sapiens, Skin fibroblast, 100 μM, IL-1 500 picograms/ml, 24 hours, read-out: Percent inhibition of IL-1 induced PGE-2.
Where [5] appears, read: Homo sapiens, Skin fibroblast, 50 μM, IL-1 500 picograms/ml, 24 hours, read-out: Percent inhibition of IL-1 induced PGE-2.

As for `CCOc1ccc(C=O)cc1` [4-EB, 4-ethoxybenzaldehyde], the “flux rate of 4-EB through human skin” value in series [1] is recorded as 30-50 micrograms/hour. In series [2] (Example 1, 250 μM or 500 μM, IL-1 500 picograms/ml, 24 hours), the “inhibition of the IL-1 induction of PGE-2” value was “complete inhibition”. Moreover, the “IL-1 induction of PGE-2 blocked” value in series [2] (10 μM) is on record as 35%; in series [2] (50 μM), 82%; in series [2] (100 μM), “completely blocked”. Also, the inhibition at 100 µM is 81.5% in series [2] (setting [4]) and 94.9% in series [3]. Also, the inhibition at 50 µM in series [3] amounted to 79.9%.

Take `CCOc1ccccc1C=O` [2-EB, 2-ethoxybenzaldehyde]: the figures for the inhibition at 100 µM in series [2] (setting [4]) and in series [3] were 82.9% and 83%, respectively. Besides, the inhibition at 50 µM in series [2] (setting [5]) was determined as 58.9%; in series [3] it was 76.6%. In series [3] (10 μM), the inhibition at 10 µM came out at 55.2%.

Take `COc1ccc(C=O)cc1` [4-MB, 4-methoxybenzaldehyde]: in series [2] (Example 3, 10 or 50 μM), the “inhibition of the IL-1 induced production of PGE-2 (in words)” value is reported as “did not appear to inhibit”. The inhibition at 50 µM in series [2] (setting [5]) was determined as 13.6%. Further, the inhibition at 10 µM in series [2] (Homo sapiens, Skin fibroblast, Example 3 (FIG. 4B), 10 μM, IL-1 500 picograms/ml, 24 hours, read-out: Percent inhibition of IL-1 induced PGE-2) amounted to 16.2%.

Take `CCOc1cccc(C=O)c1` [3-EB, 3-ethoxybenzaldehyde]: the inhibition at 100 µM was 41.2% in series [2] (setting [4]) and 76.7% in series [3]. The inhibition at 50 µM in series [2] (setting [5]) was 42.6%; in series [3] it was 57.7%.

Values taken from patent publication US10702515B2, “Compositions containing aromatic aldehydes and their use in treatments” (Allergan, Inc., priority 2001, dated 2020).
